Assay results taken from ChEMBL document CHEMBL4699448, “Garcinoic Acids and a Benzophenone Derivative from the Seeds of Garcinia kola and Their Antibacterial Activities against Oral Bacterial Pathogenic Organisms” (2020).
In brackets after ≈: the same amount, converted by molar mass.

Tests used:
Format in all cases: functional
[1] = system: Streptococcus sobrinus; test: Bactericidal activity against Streptococcus sobrinus 6715 assessed as reduction in bacterial growth incubated for 48 hrs by INT dye based broth dilution method
[2] = system: Porphyromonas gingivalis; test: Bactericidal activity against Porphyromonas gingivalis ATCC 33277 assessed as reduction in bacterial growth incubated for 48 hrs by INT dye based broth dilution method
[3] = system: Porphyromonas gingivalis; test: Antibacterial activity against Porphyromonas gingivalis ATCC 33277 assessed as reduction in bacterial growth incubated for 24 hrs by INT dye based broth dilution method
[4] = system: Streptococcus sobrinus; test: Antibacterial activity against Streptococcus sobrinus 6715 assessed as reduction in bacterial growth incubated for 24 hrs by INT dye based broth dilution method

With `C/C(=C\CC/C(C)=C/CC[C@]1(C)CCc2cc(O)cc(C)c2O1)CC/C=C(\C)C(=O)O` as the molecule, how does the MBC [1] read?
Its MBC is 62.5 µM (≈ 26.7 µg/mL).

And the MBC [2]?
The MBC was 250 µM (≈ 107 µg/mL).

And the MIC [3]?
The MIC was 31.3 µM (≈ 13.4 µg/mL).

What about the MIC [4] of the same molecule?
Its MIC is 31.3 µM (≈ 13.4 µg/mL).

What does the source list for `O=C1C[C@@H](c2ccc(O)cc2)Oc2c1c(O)cc(O)c2[C@H]1C(=O)c2c(O)cc(O)cc2O[C@@H]1c1ccc(O)cc1`?
MBC [1]: 500 µM (≈ 271 µg/mL); MBC [2]: > 1000 µM; MIC [3]: 250 µM (≈ 136 µg/mL); MIC [4]: 250 µM (≈ 136 µg/mL)

What does the source list for `C/C(=C\CC/C(C)=C/CC[C@]1(C)CCc2cc(Oc3c(O)cc(C)c4c3CC[C@@](C)(CC/C=C(\C)CC/C=C(\C)CC/C=C(\C)C(=O)O)O4)cc(C)c2O1)CC/C=C(\C)C(=O)O`?
MBC [1]: > 1000 µM; MBC [2]: > 1000 µM; MIC [3]: > 1000 µM; MIC [4]: > 1000 µM

Which results are given for `COc1ccc([C@@H]2CC(=O)c3c(O)cc(O)c([C@H]4C(=O)c5c(O)cc(O)cc5O[C@@H]4c4ccc(O)cc4)c3O2)cc1O`?
MBC [1]: > 1000 µM; MBC [2]: > 1000 µM; MIC [3]: 125 µM (≈ 71.6 µg/mL); MIC [4]: 500 µM (≈ 286 µg/mL)

`CC(C)=CCC/C(C)=C/Cc1c(O)cc(C(=O)c2ccccc2)cc1O` was tested. Which MBC [1] did it give?
The MBC was 31.3 µM (≈ 11 µg/mL).

And the MBC [2]?
The MBC was greater than 1000 µM.

And the MIC [3]?
The MIC was 62.5 µM (≈ 21.9 µg/mL).

What about the MIC [4] of the same molecule?
The MIC was 15.6 µM (≈ 5.47 µg/mL).

With `C/C(=C\CC/C(C)=C/CC[C@]1(C)CCc2c(c(C)cc(O)c2-c2c(O)cc(C)c3c2CC[C@@](C)(CC/C=C(\C)CC/C=C(\C)CC/C=C(\C)C(=O)O)O3)O1)CC/C=C(\C)C(=O)O` as the molecule, how does the MBC [1] read?
Its MBC is greater than 1000 µM.

And the MBC [2]?
Its MBC is greater than 1000 µM.

What about the MIC [3] of the same molecule?
The MIC was greater than 1000 µM.

And the MIC [4]?
Its MIC is greater than 1000 µM.

How did the MBC [1] turn out when `C/C(=C\CC/C(C)=C/CC[C@]1(C)CCc2cc(Oc3c(O)c(C)c(C)c4c3CC[C@@](C)(CC/C=C(\C)CC/C=C(\C)CC/C=C(\C)C(=O)O)O4)cc(C)c2O1)CC/C=C(\C)C(=O)O` was run?
The MBC was greater than 1000 µM.

And the MBC [2]?
Its MBC is greater than 1000 µM.

And the MIC [3]?
The MIC was greater than 1000 µM.

What about the MIC [4] of the same molecule?
The MIC was greater than 1000 µM.

How did the MBC [1] turn out when `COc1ccc([C@H]2Oc3c(c(O)cc(O)c3[C@H]3C(=O)c4c(O)cc(O)cc4O[C@@H]3c3ccc(O)cc3)C(=O)[C@@H]2O)cc1O` was run?
Its MBC is greater than 1000 µM.

What about the MBC [2] of the same molecule?
Its MBC is greater than 1000 µM.

What about the MIC [3] of the same molecule?
The MIC was greater than 1000 µM.

And the MIC [4]?
Its MIC is 250 µM (≈ 147 µg/mL).

Which results are given for `O=C1c2c(O)cc(O)cc2O[C@H](c2ccc(O)cc2)[C@H]1c1c(O)cc(O)c2c1O[C@H](c1ccc(O)cc1)[C@@H](O)C2=O`?
MBC [1]: 1000 µM (≈ 558 µg/mL); MBC [2]: > 1000 µM; MIC [3]: > 1000 µM; MIC [4]: 250 µM (≈ 140 µg/mL)

What does the source list for `O=C1c2c(O)cc(O)cc2O[C@H](c2ccc(O)cc2)[C@H]1c1c(O)cc(O)c2c1O[C@H](c1ccc(O)c(O)c1)[C@@H](O)C2=O`?
MBC [1]: 1000 µM (≈ 574 µg/mL); MBC [2]: > 1000 µM; MIC [3]: > 1000 µM; MIC [4]: 250 µM (≈ 144 µg/mL)

What does the source list for `N=C(NCCCCCCNC(=N)NC(=N)Nc1ccc(Cl)cc1)NC(=N)Nc1ccc(Cl)cc1` [CHLORHEXIDINE]?
MBC [1]: 2 µM (≈ 1.01 µg/mL); MBC [2]: 31.3 µM (≈ 15.8 µg/mL); MIC [3]: 15.6 µM (≈ 7.89 µg/mL); MIC [4]: 2 µM (≈ 1.01 µg/mL)

`CC1(C)CC[C@]2(C)CC[C@]3(C)[C@H]4CC=C5[C@@H](CC[C@H](O)C5(C)C)[C@]4(C)CC[C@@]3(C)[C@@H]2C1` [GLUTINOL] was tested. Which MBC [1] did it give?
The MBC was greater than 1000 µM.

And the MBC [2]?
The MBC was greater than 1000 µM.

What about the MIC [3] of the same molecule?
Its MIC is greater than 1000 µM.

What about the MIC [4] of the same molecule?
The MIC was greater than 1000 µM.
